Laboratory results taken from US8551984B2, “Aminopyrimidines as SYK inhibitors” (Merck Sharp & Dohme Corp., priority 2009, dated 2013).

biological target: recombinant human SYK (GST-hSYK fusion protein) (Homo sapiens, UniProt P43405); test: biochemical; conditions: rhSYK Activity, Table 54D
Text: Homogeneous Time-Resolved Fluorescence (HTRF) Assay for the Recombinant Human SYK Enzyme:

IC50 [µM]	Structure (SMILES)
< 0.1	Cc1cc(Nc2nccc(C(F)(F)F)n2)cc(-c2cnc(C3(O)CCCN(C(=O)C4CCCCO4)CC3)s2)c1 (stereo not shown) [Example 54D-65]
< 0.1	Cc1cc(Nc2nccc(C(F)(F)F)n2)cc(-c2cnc(C3(O)CCCN(C(=O)C4CCC(=O)O4)CC3)s2)c1 (stereo not shown) [Example 54D-66]
< 0.1	Cc1cc(Nc2nccc(C(F)(F)F)n2)cc(-c2cnc(C3(O)CCCN(C(=O)CC4CCOC4)CC3)s2)c1 (stereo not shown) [Example 54D-67]
< 0.1	Cc1cc(Nc2nccc(C(F)(F)F)n2)cc(-c2cnc(C3(O)CCCN(C(=O)C4CCCOC4)CC3)s2)c1 (stereo not shown) [Example 54D-68]
< 0.1	Cc1cc(Nc2nccc(C(F)(F)F)n2)cc(-c2cnc(C3(O)CCCN(C(=O)C4(C(=O)O)CC4)CC3)s2)c1 (stereo not shown) [Example 54D-70]
< 0.1	Cc1cc(Nc2nccc(C(F)(F)F)n2)cc(-c2cnc(C3(O)CCCN(C(=O)C4CC4C(=O)O)CC3)s2)c1 (stereo not shown) [Example 54D-71]
< 0.1	COC(=O)CCC(=O)N1CCCC(O)(c2ncc(-c3cc(C)cc(Nc4nccc(C(F)(F)F)n4)c3)s2)CC1 (stereo not shown) [Example 54D-72]
< 0.1	CCOC(=O)CC(=O)N1CCCC(O)(c2ncc(-c3cc(C)cc(Nc4nccc(C(F)(F)F)n4)c3)s2)CC1 (stereo not shown) [Example 54D-73]
< 0.1	Cc1cc(Nc2nccc(C(F)(F)F)n2)cc(-c2cnc(C3(O)CCCN(C(=O)CCNC(N)=O)CC3)s2)c1 (stereo not shown) [Example 54D-76]
< 0.1	Cc1cc(Nc2nccc(C(F)(F)F)n2)cc(-c2cnc(C3(O)CCCN(C(=O)C(O)C(C)(C)O)CC3)s2)c1 (stereo not shown) [Example 54D-77]
< 0.1	Cc1cc(Nc2nccc(C(F)(F)F)n2)cc(-c2cnc(C3(O)CCCN(C(=O)C(C)(CO)CO)CC3)s2)c1 (stereo not shown) [Example 54D-78]
< 0.1	Cc1cc(Nc2nccc(C(F)(F)F)n2)cc(-c2cnc(C3(O)CCCN(C(=O)Cc4cccnc4)CC3)s2)c1 (stereo not shown) [Example 54D-81]
< 0.1	Cc1cc(Nc2nccc(C(F)(F)F)n2)cc(-c2cnc(C3(O)CCCN(C(=O)Cc4ccccn4)CC3)s2)c1 (stereo not shown) [Example 54D-82]
< 0.1	Cc1cc(Nc2nccc(C(F)(F)F)n2)cc(-c2cnc(C3(O)CCCN(C(=O)CS(C)(=O)=O)CC3)s2)c1 (stereo not shown) [Example 54D-83]
< 0.1	Cc1cc(Nc2nccc(C(F)(F)F)n2)cc(-c2cnc(C3(O)CCCN(C(=O)c4ccc(O)cc4)CC3)s2)c1 (stereo not shown) [Example 54D-84]
< 0.1	Cc1cc(Nc2nccc(C(F)(F)F)n2)cc(-c2cnc(C3(O)CCCN(C(=O)c4ccc(O)cn4)CC3)s2)c1 (stereo not shown) [Example 54D-85]
< 0.1	Cc1cc(Nc2nccc(C(F)(F)F)n2)cc(-c2cnc(C3(O)CCCN(C(=O)c4cccc(O)n4)CC3)s2)c1 (stereo not shown) [Example 54D-86]
< 0.1	Cc1cc(Nc2nccc(C(F)(F)F)n2)cc(-c2cnc(C3(O)CCCN(C(=O)c4cc(O)ccn4)CC3)s2)c1 (stereo not shown) [Example 54D-87]
< 0.1	Cc1cc(Nc2nccc(C(F)(F)F)n2)cc(-c2cnc(C3(O)CCCN(C(=O)CCc4cn[nH]c4)CC3)s2)c1 (stereo not shown) [Example 54D-88]

IC50 [µM]	Structure (SMILES)
< 0.1	Cc1cc(Nc2nccc(C(F)(F)F)n2)cc(-c2cnc(C3(O)CCCN(C(=O)CCC(F)(F)F)CC3)s2)c1 (stereo not shown) [Example 54D-90]
< 0.1	Cc1cc(Nc2nccc(C(F)(F)F)n2)cc(-c2cnc(C3(O)CCCN(C(=O)CN4CCCC4=O)CC3)s2)c1 (stereo not shown) [Example 54D-91]
< 0.1	Cc1cc(Nc2nccc(C(F)(F)F)n2)cc(-c2cnc(C3(O)CCCN(C(=O)C4CCCC(=O)N4)CC3)s2)c1 (stereo not shown) [Example 54D-92]
< 0.1	Cc1cc(Nc2nccc(C(F)(F)F)n2)cc(-c2cnc(C3(O)CCCN(C(=O)Cc4n[nH]c(=O)[nH]4)CC3)s2)c1 (stereo not shown) [Example 54D-93]
< 0.1	COC(=O)C1(C(=O)N2CCCC(O)(c3ncc(-c4cc(C)cc(Nc5nccc(C(F)(F)F)n5)c4)s3)CC2)CC1 (stereo not shown) [Example 54D-95]
< 0.1	Cc1cc(Nc2nccc(C(F)(F)F)n2)cc(-c2cnc(C3(O)CCCN(C(=O)CC4CCOCC4)CC3)s2)c1 (stereo not shown) [Example 54D-96]
< 0.1	Cc1cc(Nc2nccc(C(F)(F)F)n2)cc(-c2cnc(C3(O)CCCN(C(=O)C(O)C(F)(F)F)CC3)s2)c1 (stereo not shown) [Example 54D-97]
< 0.1	Cc1cc(Nc2nccc(C(F)(F)F)n2)cc(-c2cnc(C3(O)CCCN(C(=O)CCC(=O)N(C)C)CC3)s2)c1 (stereo not shown) [Example 54D-98]
< 0.1	C#Cc1ccc(C(=O)N2CCCC(O)(c3ncc(-c4cc(C)cc(Nc5nccc(C(F)(F)F)n5)c4)s3)CC2)cc1 (stereo not shown) [Example 54D-99]
< 0.1	CCC(CO)(CO)C(=O)N1CCCC(O)(c2ncc(-c3cc(C)cc(Nc4nccc(C(F)(F)F)n4)c3)s2)CC1 (stereo not shown) [Example 54D-102]
< 0.1	Cc1cc(Nc2nccc(C(F)(F)F)n2)cc(-c2cnc(C3(O)CCCN(C(=O)c4cc(O)ccc4F)CC3)s2)c1 (stereo not shown) [Example 54D-104]
< 0.1	Cc1cc(Nc2nccc(C(F)(F)F)n2)cc(-c2cnc(C3(O)CCCN(C(=O)c4ccnc(Cl)n4)CC3)s2)c1 (stereo not shown) [Example 54D-105]
< 0.1	CC(=O)Oc1ccc(C(=O)N2CCCC(O)(c3ncc(-c4cc(C)cc(Nc5nccc(C(F)(F)F)n5)c4)s3)CC2)cc1 (stereo not shown) [Example 54D-106]
< 0.1	COC(=O)C1CCC(C(=O)N2CCCC(O)(c3ncc(-c4cc(C)cc(Nc5nccc(C(F)(F)F)n5)c4)s3)CC2)CC1 (stereo not shown) [Example 54D-111]
< 0.1	COC(=O)C(O)(CC(=O)N1CCCC(O)(c2ncc(-c3cc(C)cc(Nc4nccc(C(F)(F)F)n4)c3)s2)CC1)C(F)(F)F (stereo not shown) [Example 54D-112]
< 0.1	Cc1cc(Nc2nccc(C(F)(F)F)n2)cc(-c2cnc(C3(O)CCCN(S(=O)(=O)NC(=O)OC(C)(C)C)CC3)s2)c1 (stereo not shown) [Example 54D-114]
< 0.1	Cc1cc(Nc2nccc(C(F)(F)F)n2)cc(-c2cnc(C3(O)CCCN(S(N)(=O)=O)CC3)s2)c1 (stereo not shown) [Example 54D-115]
< 0.1	Cc1cc(Nc2nccc(C(F)(F)F)n2)cc(-c2cnc(C3(O)CCCN(S(=O)(=O)O)CC3)s2)c1 (stereo not shown) [Example 54D-118]
< 0.1	Cc1cc(Nc2nccc(C(F)(F)F)n2)cc(-c2cnc(C3(O)CCCN(C(=O)CO)CC3)s2)c1 (stereo not shown) [Example 54D-121]

same assay, conditions: rhSYK Activity, Table 54E

IC50 [µM]	Structure (SMILES)
< 0.1	Cc1cc(Nc2nccc(C(F)(F)F)n2)cc(-c2cnc([C@]3(O)CC[C@@H](NC(=O)[C@@H](C)O)CC3)s2)c1 [Example 54E-1]
< 0.1	Cc1cc(Nc2nccc(C(F)(F)F)n2)cc(-c2cnc(C3(O)CCC(NC(=O)CC(N)=O)CC3)s2)c1 (stereo not shown) [Example 54E-3]
< 0.1	Cc1cc(Nc2nccc(C(F)(F)F)n2)cc(-c2cnc([C@]3(O)CC[C@@H](NC(=O)c4ncc[nH]4)CC3)s2)c1 [Example 54E-4]
< 0.1	Cc1cc(Nc2nccc(C(F)(F)F)n2)cc(-c2cnc([C@]3(O)CC[C@@H](NC(=O)c4c[nH]cn4)CC3)s2)c1 [Example 54E-5]
< 0.1	Cc1cc(Nc2nccc(C(F)(F)F)n2)cc(-c2cnc([C@]3(O)CC[C@@H](NC(=O)c4c[nH]nn4)CC3)s2)c1 [Example 54E-6]
< 0.1	Cc1cc(Nc2nccc(C(F)(F)F)n2)cc(-c2cnc(C3(O)CCC(NC(=O)C4CC(O)C4)CC3)s2)c1 (stereo not shown) [Example 54E-7]
< 0.1	Cc1cc(Nc2nccc(C(F)(F)F)n2)cc(-c2cnc(C3(O)CCC(NC(=O)CCC(N)=O)CC3)s2)c1 (stereo not shown) [Example 54E-8]
< 0.1	Cc1cc(Nc2nccc(C(F)(F)F)n2)cc(-c2cnc([C@]3(O)CC[C@@H](NC(=O)c4ccccc4)CC3)s2)c1 [Example 54E-9]
